How the values were obtained:
HDAC2 = target: T1, HDAC2 (Homo sapiens, UniProt Q92769); experiment: HDAC2 enzyme inhibition assay (fluorimetric); format: biochemical; conditions: 1 μM compound; 3 h pre-incubation; recombinant full length HDAC2; read-out: HDAC2 % inh @ 1 μM
T1 construct: (full length with C-terminal His-tag); His (C); purchased BPS Bioscience Inc. 50002
Procedure: HDAC6 and HDAC2 Enzyme Inhibition Assay
A fluorimetric assay was used for testing the activity of compounds of the invention against HDAC6 and HDAC2.
The compounds were dissolved in DMSO. Serial dilutions were prepared in DMSO and then diluted 1:10 in HDAC assay buffer (Tris-buffered solution, BPS Bioscience Inc. #50031). 5 μl of the compound dilution was added to a 50 μl reaction so that the final concentration of DMSO was 1%.
The compounds were pre-incubated in duplicate at RT for 3 hours in a mixture containing HDAC assay buffer, 5 μg BSA and recombinant HDAC enzyme (see table above). The enzymatic reactions were initiated by the addition of a fluorogenic, acetylated peptide substrate based on a histone protein (BPS Bioscience Inc. #50037) to a final concentration of 10 μM. The enzymatic reaction proceeded for 30 minutes at 37° C. Then, 50 μl of 2× HDAC Developer, which contains peptidase activity and Trichostatin A (BPS Bioscience Inc. #50030) was added and the plate was incubated at RT for an additional 15 minutes. Fluorescence intensity was measured at an excitation of 360 nm and an emission of 460 nm using a Tecan Infinite M1000 microplate reader.
Trichostatin A (TSA, Selleckchem #S1045) was used as reference inhibitor.
The fluorescent intensity data were analyzed using the computer software Graphpad Prism (GraphPad Software, San Diego, CA). 100% activity was defined as the fluorescent intensity (Ft) in the absence of the compound. 0% activity was defined as the fluorescent intensity (Fb) in the absence of the enzyme. The percent activity in the presence of each compound was calculated according to the following equation: % activity=(F−Fb)/(Ft−Fb), where F=the fluorescent intensity in the presence of the compound.

HDAC6 [1] = target: T2, HDAC6 (Homo sapiens, UniProt Q9UBN7); experiment: HDAC6 enzyme inhibition assay (fluorimetric); format: biochemical; conditions: 1 μM compound; 3 h pre-incubation; recombinant full length HDAC6; read-out: HDAC6 % inh @ 1 μM
T2 sequence (Q9UBN7 1-1215): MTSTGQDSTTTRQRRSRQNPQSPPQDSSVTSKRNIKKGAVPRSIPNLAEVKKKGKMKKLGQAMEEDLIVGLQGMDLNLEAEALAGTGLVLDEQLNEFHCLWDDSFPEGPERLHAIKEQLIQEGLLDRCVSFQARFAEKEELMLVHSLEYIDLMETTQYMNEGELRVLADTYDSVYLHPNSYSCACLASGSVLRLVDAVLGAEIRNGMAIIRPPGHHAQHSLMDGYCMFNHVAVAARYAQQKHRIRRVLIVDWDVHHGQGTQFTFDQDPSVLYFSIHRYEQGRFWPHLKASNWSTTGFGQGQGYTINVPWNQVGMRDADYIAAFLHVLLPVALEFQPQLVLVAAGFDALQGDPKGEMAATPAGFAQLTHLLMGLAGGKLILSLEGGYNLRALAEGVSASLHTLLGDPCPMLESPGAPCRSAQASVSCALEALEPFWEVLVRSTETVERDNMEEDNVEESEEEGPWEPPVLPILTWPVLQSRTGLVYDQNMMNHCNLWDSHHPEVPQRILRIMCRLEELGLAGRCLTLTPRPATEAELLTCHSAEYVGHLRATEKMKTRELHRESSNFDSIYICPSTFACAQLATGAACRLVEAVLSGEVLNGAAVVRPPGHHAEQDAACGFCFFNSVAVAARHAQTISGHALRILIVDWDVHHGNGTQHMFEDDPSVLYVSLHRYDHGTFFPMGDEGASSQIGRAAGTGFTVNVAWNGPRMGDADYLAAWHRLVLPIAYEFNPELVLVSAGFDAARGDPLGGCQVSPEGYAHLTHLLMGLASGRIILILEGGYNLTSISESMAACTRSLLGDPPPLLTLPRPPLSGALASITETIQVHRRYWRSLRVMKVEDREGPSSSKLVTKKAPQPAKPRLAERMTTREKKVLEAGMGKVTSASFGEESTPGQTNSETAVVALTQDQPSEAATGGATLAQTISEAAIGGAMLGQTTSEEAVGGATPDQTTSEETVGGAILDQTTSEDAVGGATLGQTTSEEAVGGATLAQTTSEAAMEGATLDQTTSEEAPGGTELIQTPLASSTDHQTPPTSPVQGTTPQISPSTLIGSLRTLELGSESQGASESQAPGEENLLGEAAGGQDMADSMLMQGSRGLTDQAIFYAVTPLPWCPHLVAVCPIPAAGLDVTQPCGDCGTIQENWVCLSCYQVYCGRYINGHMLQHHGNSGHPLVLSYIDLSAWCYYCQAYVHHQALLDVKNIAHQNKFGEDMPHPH
Method in brief: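 Recombinant human HDAC6 or HDAC2 pre-incubated with compound 3 h at RT with BSA, 1% DMSO final; reaction started with fluorogenic acetylated histone peptide (10 μM final), 30 min at 37 °C, then developer with trichostatin A 15 min RT. Fluorescence Ex 360/Em 460 nm; % activity versus no-compound and no-enzyme controls.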

HDAC6 [2] = target: T2, HDAC6; experiment: In vitro cell-based assay: acetylation levels of Alpha-Tubulin by Western Blot in MOLP8 cells; design: endogenous in cells; host or cells: MOLP8; conditions: 18 h, acetyl-alpha-tubulin relative band intensity, ACY-1215 1 μM = 100%
Method in brief: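 MOLP8 cells treated with compounds at 5 and 1 μM for 18 h at 37° C.; acetyl-alpha-tubulin measured by Western blot of RIPA extracts (7 μg protein). Bands normalized to total protein or beta-actin, expressed relative to ACY-1215 1 μM (100%), then classed.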

T1 sequence (Q92769 whole entry): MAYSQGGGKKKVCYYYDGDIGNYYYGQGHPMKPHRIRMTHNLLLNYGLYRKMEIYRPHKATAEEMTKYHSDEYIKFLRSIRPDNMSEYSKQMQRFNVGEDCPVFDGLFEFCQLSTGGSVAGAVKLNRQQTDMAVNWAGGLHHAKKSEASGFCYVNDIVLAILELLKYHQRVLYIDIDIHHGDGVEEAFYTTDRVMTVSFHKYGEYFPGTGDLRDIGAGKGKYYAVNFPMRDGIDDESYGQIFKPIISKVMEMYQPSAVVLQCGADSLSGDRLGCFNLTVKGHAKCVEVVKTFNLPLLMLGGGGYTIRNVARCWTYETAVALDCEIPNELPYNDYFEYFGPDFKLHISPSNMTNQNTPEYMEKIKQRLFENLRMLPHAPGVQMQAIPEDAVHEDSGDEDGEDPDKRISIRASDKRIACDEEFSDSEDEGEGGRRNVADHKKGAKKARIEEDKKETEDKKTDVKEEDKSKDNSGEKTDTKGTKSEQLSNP

inhibition at 1 µM (HDAC2): 19%
inhibition at 1 µM (HDAC6 [1]): 98%
Cellular activity @1 uM (HDAC6 [2]; 1 μM): +++ (>300)
Cellular activity @5 uM (HDAC6 [2]; 5 μM): +++ (>300)
Compound: CN(C)C(=O)c1cc2cc(-c3cc(-c4noc(C(F)(F)F)n4)ccn3)ncc2n1C [Example 1u, N,N,1-Trimethyl-5-(4-(5-(trifluoromethyl)-1,2,4-oxadiazol-3-yl)pyridin-2-yl)-1H-pyrrolo[2,3-c]pyridine-2-carboxamide]
